# In patent publication US5294627A, “Directed biosynthesis of biologically active compounds” (Merck & Co., Inc., priority 1992, dated 1994):
# Target: T1, Squalene synthase (Rattus norvegicus, UniProt Q02769)
# T1 construct: from tissue; host or cells: liver microsomes of Charles River CD rats fed 0.1% lovastatin for 4 days
# T1 sequence (Q02769 1-416): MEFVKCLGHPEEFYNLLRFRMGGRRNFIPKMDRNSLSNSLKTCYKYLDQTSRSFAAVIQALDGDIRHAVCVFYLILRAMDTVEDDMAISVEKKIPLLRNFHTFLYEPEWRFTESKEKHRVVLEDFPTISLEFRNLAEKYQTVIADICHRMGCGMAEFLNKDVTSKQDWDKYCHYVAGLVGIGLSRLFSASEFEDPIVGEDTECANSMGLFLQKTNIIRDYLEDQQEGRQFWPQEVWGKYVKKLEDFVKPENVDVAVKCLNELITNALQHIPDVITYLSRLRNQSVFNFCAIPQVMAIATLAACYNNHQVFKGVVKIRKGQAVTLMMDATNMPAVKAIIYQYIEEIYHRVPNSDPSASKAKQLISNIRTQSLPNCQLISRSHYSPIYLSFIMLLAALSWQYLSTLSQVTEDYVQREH
# Test: Squalene synthase assay (rat liver microsomes, [3H]farnesyl-pyrophosphate)
# Assay type: biochemical
# Conditions: 30° C., 20 minutes
# Description: The intrinsic squalene synthase inhibitory activity of representative compounds of this invention was measured by the standard in vitro protocol described below:
# CHARLES RIVER CD rats (120 to 150 g) were fed a diet containing 0.1% lovastatin for 4 days. The livers from these rats were homogenized in 5 volumes (mL/g) of ice cold 50 mM HEPES (4-(2-hydroxyethyl)-1-piperazine-ethanesulfonic acid), 5 mM EDTA (ethylenediaminetetraacetic acid) pH 7.5 with a Potter-Elvehjem type tissue grinder. The homogenate was centrifuged twice at 20,000× g for 15 min. at 4° C., discarding the pellet each time. The supernatant was then centrifuged at 100,000× g for 1 hr at 4° C. The resulting microsomal pellet was resuspended in a volume of the above homogenizing buffer equal to one-fifth the volume of the original homogenate. This microsomal preparation has a protein concentration of about 7 mg/mL. The microsomal suspensions were stored in aliquots at -70° C. Squalene synthase activity in these aliquots is stable for a least several months. […]
# If a squalene epoxidase inhibitor (ingredient (7) above), such as Banyu's FW-439H, is not used, the assay mix is degassed under a vacuum and flushed with N2. […] Five mL of scintillation fluid was added to the heptane solution and radioactivity was determined by liquid scintillation counting.
# Percent inhibition is calculated by the formula: [formula]
compound,measurement,value
CC(=O)OC(CCCC12OC(C(=O)O)C(O)(C(=O)O)C(C(=O)O)(O1)[C@H](OC(=O)CC/C=C/C(C)CCCc1ccccc1)[C@H]2O)C(C)Cc1cccs1 (stereo partly shown),IC50,< 0.131 µM
